Data from US9271952B2, “Compositions and methods for treating nephropathy” (Complexa, Inc., priority 2011, dated 2016).

How the values were obtained:
[1] = test system: B6129S2/J mice; assay: Cisplatin-induced renal injury in mice, posttreatment with OA-NO2; assay type: in vivo
Text: The control group also received an i.p. injection of the equivalent amount of ethanol at the same frequencies. At the end of the experiments, under isoflurane anesthesia, blood was withdrawn from the vena cava using 1 cc insulin syringe and kidneys were harvested for analysis of morphology and gene expression.

[2] = test system: human proximal tubular cells (HK2); assay: Cisplatin-induced caspase activity in cultured human proximal tubular cells (HK2); assay type: cell-based
[3] = cisplatin-treated mice, OA-NO2 400 mg/kg i.p. at 6-hour intervals for 48 hours
[4] = cisplatin 20 mg/kg i.p. alone, mice

In the case of “9- or 10-nitro octadecenoic acid [OA-NO2]”, the “MPO plasma level (marker of neutrophil infiltration)” value [1, 3] is reported as “attenuated or completely corrected”, the “activity of caspase (index of apoptosis)” value [1, 3] is reported as “attenuated or completely corrected” and the “kidney expression of NADPH oxidase subunits p47phox and gp91phox” value [1, 3] is reported as “attenuated or completely corrected”. For the same compound, the “kidney thiobarbituric acid-reactive substances (TBARS, index of oxidative stress)” value [1, 3] was “attenuated or completely corrected”, the “renal histological abnormalities (distortion of renal morphology, dilation of renal tubules, protein cast; pathological changes)” value ([1]; mice given cisplatin 20 mg/kg i.p., OA-NO2 400 mg/kg i.p. at 6-hour intervals for 48 hours) was “markedly attenuated” and the “renal dysfunction as indicated by a rise in plasma BUN (functional changes)” value ([1]; mice given cisplatin 20 mg/kg i.p., OA-NO2 400 mg/kg i.p. from 20 minutes after, at 6-hour intervals for 48 hours) was “markedly attenuated”. For the same compound, the cisplatin-induced caspase activity ([2]; HK2 cells exposed to 1.0 μM cisplatin, with OA-NO2) was “almost completely normalized”.
For `N.N.[Cl][Pt][Cl]` [cisplatin, reference compound], the activity of caspase [1, 4] was “increased”, the “kidney TBARS” value [1, 4] was “increased” and the “kidney expression of NADPH oxidase subunits p47phox and gp91phox” value [1, 4] was “increased”. The “increase in caspase activity” value ([2]; HK2 cells, exposure to 1.0 μM cisplatin) was 3 fold.
